# Source: US10105348B2, “Use of 2-(5S-methyl-2-oxo-4R-phenyl-pyrrolidin-1-yl)-acetamide in the treatment of seizures” (Latvian Institute of Organic Synthesis, priority 2015, dated 2018)
# Key:
# [1] = system: PTZ-induced clonic and tonic seizures; experiment: Timed i.v. pentylenetetrazol (PTZ) infusion seizure threshold test; format: in vivo; conditions: male ICR mice
# Protocol: (§1) Male ICR mice (Harlan Laboratories BV, Netherlands, ICR (CD-1)) weighing 23-25 g were housed under standard conditions (21-23° C., 50%±10% relative humidity, 12 h light-dark cycle) with unlimited access to standard food (R70 diet, Lactamin AB, Sweden) and water. All experimental procedures were carried out in accordance with guidelines of the EU Directive 2010/63/EU and were approved by the Ethics Council of Animal Protection at the Veterinary and Food Service, Riga, Latvia.
# (§2) To accurately detect even slight modulatory effects on convulsive tendencies, we employed the more sensitive intravenous (i.v.) administration route of pentylenetetrazol (PTZ) administration (Loscher W, Honack D, Fassbender C P, Nolting B (1991). The role of technical, biological and pharmacological factors in the laboratory evaluation of anticonvulsant drugs. III. Pentylenetetrazole seizure models. Epilepsy Res 8:171-189; Mandhane S N, Aavula K, Rajamannar T (2007). Timed pentylenetetrazol infusion test: a comparative analysis with s.c.PTZ and MES models of anticonvulsant screening in mice. Seizure 16:636-644) and used bicucculine (BIC) to inhibit the GABA pathway and to induce seizures (Meldrum B S (1975). Epilepsy and gamma-aminobutyric acid-mediated inhibition. Int Rev Neurobiol 17:1-36.). Chemoconvulsant-induced clonic and tonic seizures were initiated by inserting a 30-gauge needle into the tail vein of mice and infusing PTZ 1% or BIC 0.01% at a constant rate of 10 μl/1 s to restrained animals. Infusion was halted when forelimb clonus followed by tonic seizures of the full body were observed. Minimal doses of PTZ or BIC (mg/kg of mouse weight) necessary to induce clonic and tonic seizures were considered as an index of seizure threshold.
# (§3) 2-(5S-Methyl-2-oxo-4R-phenyl-pyrrolidin-1-yl)-acetamide (E1R) was administered i.p. at doses of 10 and 50 mg/kg. The test session was started 60 min after the administration of E1R or saline.
# [2] = system: BIC-induced clonic and tonic seizures; experiment: Timed i.v. bicucculine (BIC) infusion seizure threshold test; format: in vivo; conditions: male ICR mice
# Protocol: as §1, §2, §3
# [3] = E1R 10 mg/kg i.p. 60 min before 1% PTZ i.v. infusion
# [4] = E1R 50 mg/kg i.p. 60 min before 1% PTZ i.v. infusion
# [5] = E1R 10 mg/kg i.p. 60 min before 0.01% BIC i.v. infusion
# [6] = E1R 50 mg/kg i.p. 60 min before 0.01% BIC i.v. infusion
structure (smiles),measurement,setting,value
"C[C@H]1[C@@H](c2ccccc2)CC(=O)N1CC(N)=O [E1R, 2-(5S-Methyl-2-oxo-4R-phenyl-pyrrolidin-1-yl)-acetamide]","Dose of PTZ, mg/kg ± SEM, Clonic seizure (threshold)",[1]; [3],27 ± 2 mg/kg
same,"Dose of PTZ, mg/kg ± SEM, Tonic seizure (threshold)",[1]; [3],64 ± 6 mg/kg
same,"Induction of tonic seizures by PTZ, effect versus saline (in words)",[1]; E1R 10 mg/kg i.p.,significantly reduced the induction of tonic seizures
same,"Dose of PTZ, mg/kg ± SEM, Clonic seizure (threshold)",[1]; [4],30 ± 1 mg/kg
same,"Dose of PTZ, mg/kg ± SEM, Tonic seizure (threshold)",[1]; [4],80 ± 8 mg/kg
same,"Clonic and tonic seizures-inducing doses of PTZ, change versus saline (in words)",[1]; E1R 50 mg/kg i.p.,significant increased
same,"Dose of BIC, mg/kg ± SEM, Clonic seizure (threshold)",[2]; [5],0.42 ± 0.02 mg/kg
same,"Dose of BIC, mg/kg ± SEM, Tonic seizure (threshold)",[2]; [5],0.88 ± 0.08 mg/kg
same,"Dose of BIC, mg/kg ± SEM, Clonic seizure (threshold)",[2]; [6],0.48 ± 0.03 mg/kg
same,"Dose of BIC, mg/kg ± SEM, Tonic seizure (threshold)",[2]; [6],1.15 ± 0.09 mg/kg
same,"Clonic and tonic seizures-inducing doses of BIC, change versus saline (in words)",[2]; E1R 50 mg/kg i.p.,significant increased
